Measurements as given in patent publication US7812220B2, “Engineering β-ketoacyl ACP synthase for novel substrate specificity” (Calgene LLC, priority 1999, dated 2010).
Where a chain is given by its changes, count along the chain named. Names and notes keep the numbering of the source.

How the values were obtained:
[1] = molecular target: fatty acid synthase from Saccharomyces cerevisiae (Saccharomyces cerevisiae, UniProt P19097); details: among chain length analogues maintaining the double bond positions; cited from earlier work
Chain of fatty acid synthase from Saccharomyces cerevisiae (P19097 whole entry): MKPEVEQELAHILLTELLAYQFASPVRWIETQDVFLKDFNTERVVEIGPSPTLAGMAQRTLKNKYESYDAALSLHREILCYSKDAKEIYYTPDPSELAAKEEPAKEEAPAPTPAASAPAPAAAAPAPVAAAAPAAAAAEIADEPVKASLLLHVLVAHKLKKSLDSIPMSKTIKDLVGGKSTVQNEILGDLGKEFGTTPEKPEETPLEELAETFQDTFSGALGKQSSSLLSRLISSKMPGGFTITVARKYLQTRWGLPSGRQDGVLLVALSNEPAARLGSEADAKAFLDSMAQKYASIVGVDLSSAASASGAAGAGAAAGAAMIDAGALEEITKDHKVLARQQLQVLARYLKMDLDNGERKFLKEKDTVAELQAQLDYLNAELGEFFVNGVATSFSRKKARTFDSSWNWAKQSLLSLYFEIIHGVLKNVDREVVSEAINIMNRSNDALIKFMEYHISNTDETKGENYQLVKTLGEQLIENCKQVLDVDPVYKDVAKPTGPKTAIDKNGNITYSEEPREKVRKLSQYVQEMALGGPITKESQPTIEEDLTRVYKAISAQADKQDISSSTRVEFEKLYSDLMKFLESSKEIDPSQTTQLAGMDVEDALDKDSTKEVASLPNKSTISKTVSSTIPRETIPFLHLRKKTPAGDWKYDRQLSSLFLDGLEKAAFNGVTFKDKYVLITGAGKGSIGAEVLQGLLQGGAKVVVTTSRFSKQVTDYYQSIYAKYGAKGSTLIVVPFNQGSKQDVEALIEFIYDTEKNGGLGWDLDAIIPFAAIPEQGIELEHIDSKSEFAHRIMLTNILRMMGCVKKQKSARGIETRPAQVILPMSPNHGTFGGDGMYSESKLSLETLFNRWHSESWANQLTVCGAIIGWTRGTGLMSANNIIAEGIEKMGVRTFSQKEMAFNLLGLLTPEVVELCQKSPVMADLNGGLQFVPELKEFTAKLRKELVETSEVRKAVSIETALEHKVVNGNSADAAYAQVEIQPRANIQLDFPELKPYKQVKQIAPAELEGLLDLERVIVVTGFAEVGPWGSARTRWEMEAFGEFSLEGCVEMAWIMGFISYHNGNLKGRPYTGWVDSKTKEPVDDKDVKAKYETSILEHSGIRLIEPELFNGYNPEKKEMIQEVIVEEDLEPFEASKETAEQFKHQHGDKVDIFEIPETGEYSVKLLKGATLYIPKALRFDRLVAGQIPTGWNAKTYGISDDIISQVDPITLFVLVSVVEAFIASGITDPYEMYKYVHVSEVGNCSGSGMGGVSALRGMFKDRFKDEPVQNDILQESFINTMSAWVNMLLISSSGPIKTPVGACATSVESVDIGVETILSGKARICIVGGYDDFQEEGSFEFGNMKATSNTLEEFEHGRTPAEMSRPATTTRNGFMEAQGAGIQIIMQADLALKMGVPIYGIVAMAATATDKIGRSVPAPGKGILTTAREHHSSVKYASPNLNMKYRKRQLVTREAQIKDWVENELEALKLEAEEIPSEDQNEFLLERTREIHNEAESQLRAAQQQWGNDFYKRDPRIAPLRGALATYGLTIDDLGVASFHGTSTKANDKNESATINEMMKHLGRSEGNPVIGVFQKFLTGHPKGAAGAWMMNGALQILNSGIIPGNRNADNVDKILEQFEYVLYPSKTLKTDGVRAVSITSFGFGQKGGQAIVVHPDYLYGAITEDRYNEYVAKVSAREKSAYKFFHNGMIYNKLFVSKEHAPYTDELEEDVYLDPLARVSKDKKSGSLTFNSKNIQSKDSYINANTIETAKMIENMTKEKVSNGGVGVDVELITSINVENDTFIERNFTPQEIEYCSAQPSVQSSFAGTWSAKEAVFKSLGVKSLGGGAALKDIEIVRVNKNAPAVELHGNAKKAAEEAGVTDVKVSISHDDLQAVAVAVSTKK
Chain of fatty acid synthase from Saccharomyces cerevisiae (P07149 whole entry partner): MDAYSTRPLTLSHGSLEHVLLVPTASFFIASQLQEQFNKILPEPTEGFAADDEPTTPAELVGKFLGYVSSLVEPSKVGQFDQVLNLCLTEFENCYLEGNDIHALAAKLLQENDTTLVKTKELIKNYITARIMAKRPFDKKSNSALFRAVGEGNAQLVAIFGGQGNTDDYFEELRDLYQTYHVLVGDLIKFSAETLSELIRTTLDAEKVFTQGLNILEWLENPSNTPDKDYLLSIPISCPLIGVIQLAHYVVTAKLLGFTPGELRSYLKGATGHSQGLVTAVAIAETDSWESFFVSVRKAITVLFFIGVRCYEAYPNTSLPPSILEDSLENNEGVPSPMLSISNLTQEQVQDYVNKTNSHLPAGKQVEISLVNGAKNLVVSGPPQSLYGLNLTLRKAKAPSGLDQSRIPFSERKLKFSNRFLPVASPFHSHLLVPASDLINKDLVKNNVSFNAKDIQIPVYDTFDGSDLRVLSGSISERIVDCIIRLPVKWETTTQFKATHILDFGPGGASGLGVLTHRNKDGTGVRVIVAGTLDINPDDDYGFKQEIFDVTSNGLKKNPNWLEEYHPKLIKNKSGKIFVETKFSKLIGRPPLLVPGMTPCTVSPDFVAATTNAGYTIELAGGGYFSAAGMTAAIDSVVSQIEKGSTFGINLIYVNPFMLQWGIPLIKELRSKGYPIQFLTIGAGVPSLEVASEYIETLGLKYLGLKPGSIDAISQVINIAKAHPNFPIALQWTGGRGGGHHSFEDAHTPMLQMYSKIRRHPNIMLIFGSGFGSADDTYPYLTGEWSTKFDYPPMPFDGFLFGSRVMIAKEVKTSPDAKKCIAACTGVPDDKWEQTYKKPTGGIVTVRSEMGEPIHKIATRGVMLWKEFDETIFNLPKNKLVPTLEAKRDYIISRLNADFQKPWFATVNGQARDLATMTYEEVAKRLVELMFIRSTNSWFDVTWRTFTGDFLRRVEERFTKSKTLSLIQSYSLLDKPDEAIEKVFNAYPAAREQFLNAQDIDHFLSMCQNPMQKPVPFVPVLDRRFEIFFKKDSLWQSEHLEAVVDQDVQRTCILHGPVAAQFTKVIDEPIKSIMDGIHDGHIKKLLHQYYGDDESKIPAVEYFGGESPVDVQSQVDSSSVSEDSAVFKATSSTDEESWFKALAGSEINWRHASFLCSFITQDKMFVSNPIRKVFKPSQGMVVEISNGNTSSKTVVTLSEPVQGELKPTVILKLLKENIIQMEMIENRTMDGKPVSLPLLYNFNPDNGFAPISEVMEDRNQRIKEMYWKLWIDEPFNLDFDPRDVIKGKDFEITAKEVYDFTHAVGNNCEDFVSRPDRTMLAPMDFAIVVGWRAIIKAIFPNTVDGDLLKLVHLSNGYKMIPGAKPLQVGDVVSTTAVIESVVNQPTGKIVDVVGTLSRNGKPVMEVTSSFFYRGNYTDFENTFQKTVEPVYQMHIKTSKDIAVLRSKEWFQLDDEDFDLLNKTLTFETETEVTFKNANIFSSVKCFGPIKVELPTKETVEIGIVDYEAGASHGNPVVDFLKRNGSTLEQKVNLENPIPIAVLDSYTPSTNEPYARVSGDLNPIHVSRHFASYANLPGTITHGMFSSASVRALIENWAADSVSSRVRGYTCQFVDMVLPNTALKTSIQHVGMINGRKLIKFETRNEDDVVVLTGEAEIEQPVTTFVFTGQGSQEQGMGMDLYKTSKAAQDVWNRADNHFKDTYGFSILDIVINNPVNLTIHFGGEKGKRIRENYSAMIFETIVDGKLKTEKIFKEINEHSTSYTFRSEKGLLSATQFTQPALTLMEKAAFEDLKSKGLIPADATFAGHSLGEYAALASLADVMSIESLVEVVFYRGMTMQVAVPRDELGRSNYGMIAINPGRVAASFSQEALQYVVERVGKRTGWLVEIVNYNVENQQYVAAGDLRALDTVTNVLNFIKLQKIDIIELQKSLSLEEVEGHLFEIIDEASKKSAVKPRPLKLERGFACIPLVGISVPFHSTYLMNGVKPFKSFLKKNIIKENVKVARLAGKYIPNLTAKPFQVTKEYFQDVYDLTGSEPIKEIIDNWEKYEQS

[2] = test system: KASII; details: in comparison with cerulenin; cited from earlier work
[3] = test system: E. coli strain M15/pREP4; test: Effect of expression of KAS II mutants on the fatty acid composition of E. coli (GC FAME); type: cell-based; details: for accumulation of 18:0: IPTG induced 2 hours; for long chain fatty acid accumulation due to L111A and F133A: in combination mutants
Procedure: The mutant KAS II genes cloned behind an IPTG inducible T5 promoter (pQE30 vector, Qiagen) were transformed into E. coli strain M15/pREP4. E. coli M15/pREP4 strains containing no vector (−Vec), vector without insert (+Vec), or vectors expression wild-type KAS I or II or single or multiple engineered forms of KASII were grown to mid-log phase in LB media at 30° C. Expression was induced for 2 hours with IPTG (0.75 mM), cells were harvested, lyophilzed, and the lipids were extracted into toluene and derivatized by sodium methoxide and analyzed for fatty acid content by GC FAME analysis as described in Dehesh, et al. (1998) Plant J. 15:383-390.

## C/C=C/C/C=C/CCC(=O)[C@H]1O[C@H]1C(N)=O [Cerulenin, cerulenin]
[1]
  inhibitory activity: highest inhibitory activity

## CCCCCCCCC(=O)[C@H]1O[C@H]1C(N)=O [tetrahydrocerulenin]
[2]
  inhibitory activity, less than cerulenin: more than 2 orders of magnitude

## F133A: E. coli KAS II protein with F133A mutation
[3]; FIG. 3
  accumulation of 18:0: 7%

## I108A
[3]
  long chain fatty acid accumulation due to L111A and F133A: decrease the long chain fatty acid accumulation

## I114A
[3]
  long chain fatty acid accumulation due to L111A and F133A: decrease the long chain fatty acid accumulation

## L111A: E. coli KAS II protein with L111A mutation
[3]; FIG. 3
  accumulation of 18:0: 13%

B1: L197: E. coli KAS II protein with L197A mutation (protein, UniProt P0AAI5 2-413, looked up, variant L197A)
3-oxoacyl-[acyl-carrier-protei …: SKRRVVVTGLGMLSPVGNTVESTWKALLAGQSGISLIDHFDTSAYATKFAGLVKDFNCEDIISRKEQRKMDAFIQYGIVAGVQAMQDSGLEITEENATRIGAAIGSGIGGLGLIEENHTSLMNGGPRKISPFFVPSTIVNMVAGHLTIMYGLRGPSISIATACTSGVHNIGHAARIIAYGDADVMVAGGAEKASTPAGVGGFGAARALSTRNDNPQAASRPWDKERDGFVLGDGAGMLVLEEYEHAKKRGAKIYAELVGFGMSSDAYHMTSPPENGAGAALAMANALRDAGIEASQIGYVNAHGTSTPAGDKAEAQAVKTIFGEAASRVLVSSTKSMTGHLLGAAGAVESIYSILALRDQAVPPTINLDNPDEGCDLDFVPHEARQVSGMEYTLCNSFGFGGTNGSLIFKKI
[3]; FIG. 3
  accumulation of 18:0: 4%

B2: KAS II/L111A-F133A (protein, UniProt P0AAI5 2-413, looked up, variant L111A F133A)
3-oxoacyl-[acyl-carrier-protei …: B1 3-oxoacyl-[acyl-carrier-protei … with L111A, F133A, A197L
[3]; FIG. 3
  level of 20:0: 2%
  level of 20:1: 4%
